Measurements taken from US20220062278A1, “SMALL MOLECULE INHIBITORS OF THE ANDROGEN RECEPTOR ACTIVITY AND/OR EXPRESSION AND USES THEREOF” (Arizona Board of Regents on Behalf of the Univeristy of …, priority 2018, published 2022).

Target: T1, AR (Homo sapiens, UniProt P10275)
T1 sequence (P10275 669-920 limits assumed): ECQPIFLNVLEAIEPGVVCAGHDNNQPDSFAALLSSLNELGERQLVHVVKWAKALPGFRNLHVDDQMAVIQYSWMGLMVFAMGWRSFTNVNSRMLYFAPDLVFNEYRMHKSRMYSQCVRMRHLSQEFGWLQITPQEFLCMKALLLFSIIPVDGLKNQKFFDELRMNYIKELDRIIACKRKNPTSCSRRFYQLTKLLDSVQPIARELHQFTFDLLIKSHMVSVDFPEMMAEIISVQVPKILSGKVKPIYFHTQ
Assay: GeneBlazer assay, inhibition against AR activity
Format: cell-based
Details: Table II
Description: Tables II, III and IV show % inhibition against AR activity at 10 μm within a GeneBlazer assay, and IC50 values (nM) in GeneBlazer assay.

SMILES | inhibition at 10 µM | IC50
CCCCn1nnnc1C(c1cccc(O)c1)N1CCN(c2ncc(C(F)(F)F)cc2Cl)CC1 (stereo not drawn) [Compound 61, 3-((1-butyl-1H-tetrazol-5-yl)(4-(3-chloro-5-(trifluoromethyl)pyridin-2-yl)piperazin-1-yl)methyl)phenol] | 102% | 2270 nM
CCCCn1nnnc1C(c1cccc(O)c1)N1CCN(c2ccc(C(C)=O)cc2)CC1 (stereo not drawn) [Compound 63, 1-(4-(4-((1-butyl-1H-tetrazol-5-yl)(3-hydroxyphenyl)methyl)piperazin-1-yl)phenyl)ethanone] | 47.9% | 
CCCCn1nnnc1C(c1cccc(O)c1)N1CCN(c2cccc(C)c2C)CC1 (stereo not drawn) [Compound 66, 3-((1-butyl-1H-tetrazol-5-yl)(4-(2,3-dimethylphenyl)piperazin-1-yl)methyl)phenol] | 106% | 
CC(C)(C)n1nnnc1C(c1cccc(O)c1)N1CCN(C/C=C/c2ccccc2)CC1 (stereo not drawn) [Compound 68, (E)-3-((1-(tert-butyl)-1H-tetrazol-5-yl)(4-cinnamylpiperazin-1-yl)methyl)phenol] | 17.2% | 
CCCCn1nnnc1C(CCc1ccccc1)N1CCN(c2c(Cl)cncc2Cl)CC1 (stereo not drawn) [Compound 69, 1-(1-(1-butyl-1H-tetrazol-5-yl)-3-phenylpropyl)-4-(3,5-dichloropyridin-4-yl)piperazine] | 96% | 
CC(C)(C)n1nnnc1C(CCc1ccccc1)N1CCN(c2c(Cl)cncc2Cl)CC1 (stereo not drawn) [Compound 70, 1-(1-(1-(tert-butyl)-1H-tetrazol-5-yl)-3-phenylpropyl)-4-(3,5-dichloropyridin-4-yl)piperazine] | 109% | 1280 nM
CCCCn1nnnc1C(c1cccc(O)c1)N1CCN(C/C=C/c2ccccc2)CC1 (stereo not drawn) [Compound 71, (E)-3-((1-butyl-1H-tetrazol-5-yl)(4-cinnamylpiperazin-1-yl)methyl)phenol] | 11.9% | 
CCCCn1nnnc1C(c1cccc(O)c1)N1CCN(c2cc(C)ccc2C)CC1 (stereo not drawn) [Compound 72, 3-((1-butyl-1H-tetrazol-5-yl)(4-(2,5-dimethylphenyl)piperazin-1-yl)methyl)phenol] | 112% | 790 nM

Now from value to compound:

inhibition at 10 µM | IC50 | SMILES
105% |  | CCCCn1nnnc1C(c1cccc(O)c1)N1CCN(c2ncccc2C(F)(F)F)CC1 (stereo not drawn) [Compound 60, 3-((1-butyl-1H-tetrazol-5-yl)(4-(3-(trifluoromethyl)pyridin-2-yl)piperazin-1-yl)methyl)phenol]
19.9% |  | CCCCn1nnnc1C(c1cccc(O)c1)N1CCN(c2ccccn2)CC1 (stereo not drawn) [Compound 62, 3-((1-butyl-1H-tetrazol-5-yl)(4-(pyridin-2-yl)piperazin-1-yl)methyl)phenol]
79.8% |  | CCCCn1nnnc1C(c1cccc(O)c1)N1CCN(c2ccccc2F)CC1 (stereo not drawn) [Compound 65, 3-((1-butyl-1H-tetrazol-5-yl)(4-(2-fluorophenyl)piperazin-1-yl)methyl)phenol]
63.9% |  | CCCCn1nnnc1C(c1cccc(O)c1)N1CCN(c2ccccc2)CC1 (stereo not drawn) [Compound 67, 3-((1-butyl-1H-tetrazol-5-yl)(4-phenylpiperazin-1-yl)methyl)phenol]
